Read-outs that look alike come from different tables or passages of the source.
What was measured:
Test in all cases: stopped-flow CO2 hydration assay
Type in all cases: biochemical
hCA I = target: T1, hCA I (Homo sapiens, UniProt P00915); settings: read-out: Ki (μM)^b / hCA I
T1 construct: gene CA1; recombinant, obtained in the authors' laboratory; cytosolic

hCA XII = target: T2, hCA XII (Homo sapiens, UniProt O43570); settings: read-out: Ki (μM)^b / hCA XII
T2 construct: gene CA12; recombinant, obtained in the authors' laboratory; transmembrane isoform
T2 sequence (O43570 25-354 limits assumed): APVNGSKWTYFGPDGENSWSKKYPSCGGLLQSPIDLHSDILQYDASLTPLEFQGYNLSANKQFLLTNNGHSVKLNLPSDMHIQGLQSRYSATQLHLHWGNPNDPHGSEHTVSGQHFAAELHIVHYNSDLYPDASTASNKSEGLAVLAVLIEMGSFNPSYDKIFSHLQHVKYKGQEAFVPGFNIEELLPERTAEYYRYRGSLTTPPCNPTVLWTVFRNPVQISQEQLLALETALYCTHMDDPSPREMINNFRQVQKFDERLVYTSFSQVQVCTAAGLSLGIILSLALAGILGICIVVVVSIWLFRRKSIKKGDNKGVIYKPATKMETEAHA

hCA II = target: T3, hCA II (Homo sapiens, UniProt P00918)
T3 construct: gene CA2; recombinant, obtained in the authors' laboratory; cytosolic

hCA IX = target: T4, hCA IX (Homo sapiens, UniProt Q16790); settings: read-out: Ki (μM)^b / hCA IX
T4 construct: gene CA9; recombinant, obtained in the authors' laboratory; transmembrane isoform

T1 sequence (P00915 2-261): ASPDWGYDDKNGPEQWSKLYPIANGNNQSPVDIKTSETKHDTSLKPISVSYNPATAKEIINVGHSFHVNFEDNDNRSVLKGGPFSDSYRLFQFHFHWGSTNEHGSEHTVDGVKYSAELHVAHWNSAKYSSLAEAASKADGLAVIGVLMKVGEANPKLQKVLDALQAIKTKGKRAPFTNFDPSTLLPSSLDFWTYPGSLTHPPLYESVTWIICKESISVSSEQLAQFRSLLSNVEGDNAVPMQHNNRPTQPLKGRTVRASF

Row | Structure (SMILES) | Ki (hCA I) | Ki (hCA XII) | Ki (hCA II; read-out: Ki (μM)^b / hCA II) | Ki (hCA IX) | Ki (hCA II; read-out: Ki (μM)^b / hCA I)
1 | COc1cc(/C=C/C(=O)C[C@@H]2O[C@H](CO)[C@H](O)[C@H](O)[C@H]2O)ccc1O [compound 2, 1-(β-D-galactopyranosyl)-4–(4-hydroxy-3-methoxyphenyl)but-3-en-2-one] | 80.5 µM | 2.5 µM | > 100 µM | 20.8 µM | 
2 | COc1cc(/C=C/C(=O)C[C@@H]2O[C@H](CO)[C@@H](O)[C@H](O)[C@H]2O)ccc1O [compound 1, 1-(β-D-glucopyranosyl)-4–(4-hydroxy-3-methoxyphenyl)but-3-en-2-one] | 71.6 µM | 4.8 µM | > 100 µM | 30.8 µM | 
3 | CCC(=O)/C=C/c1ccc(O)c(OC)c1 [compound 4, (E)-1–(4-Hydroxy-3-methoxyphenyl)pent-1-en-3-one] | > 100 µM | 2.5 µM |  | 32 µM | > 100 µM

The next lines start with the values.

Row | Ki (hCA I) | Ki (hCA XII) | Ki (hCA II; read-out: Ki (μM)^b / hCA II) | Ki (hCA IX) | Ki (hCA II; read-out: Ki (μM)^b / hCA I) | Structure (SMILES)
4 | 76.3 µM | 0.63 µM | 96.4 µM | 29.1 µM |  | COc1cc(/C=C/C(=O)c2ccccc2)ccc1O [compound 6, (E)-3–(4-Hydroxy-3-methoxyphenyl)-1-phenylprop-2-en-1-one]
5 | > 100 µM | 1.7 µM |  | 26.3 µM | > 100 µM | COc1cc(/C=C/C(=O)CC(C)C)ccc1O [compound 5, (E)-1–(4-Hydroxy-3-methoxyphenyl)-5-methylhex-1-en-3-one]
6 | 92.6 µM | 6.4 µM | 82 µM | > 100 µM |  | COc1cc(/C=C/C(=O)c2ccc(Br)cc2)ccc1O [compound 7, (E)-1–(4-Bromophenyl)-3–(4-hydroxy-3-methoxyphenyl)prop-2-en-1-one]

From paper PMC8510595, “Vanillin enones as selective inhibitors of the cancer associated carbonic anhydrase isoforms IX and XII. The out of the active site pocket for the design of selective inhibitors?” (Journal of Enzyme Inhibition and Medicinal Chemistry, 2021)
